Experimental data published in patent publication US6344476B1, “Inhibition of p38 kinase activity by aryl ureas” (Bayer Corporation, priority 1997, dated 2002).

Row | SMILES | melting point
1 | COC(=O)c1cc(C(C)C)sc1NC(=O)Nc1ccc(C)cc1 [Example 42, N-(3-carbomethoxy-5-isopropyl-2-thienyl)-N′-(4-methylphenyl)urea] | 49 to 51 °C
2 | CCc1ccc(NC(=O)Nc2cc(C(C)(C)C)sc2C(=O)NC)cc1 [Example 23, N-(2-Methylcarbamoyl-5-tert-butyl-3-thienyl)-N′-(4ethylphenyl)urea] | 101 to 104 °C
3 | COC(=O)c1sc(C(C)(C)C)cc1NC(=O)Nc1ccc(F)cc1 [Example 54, N-(2-carbomethoxy-5-tert-butyl-3-thienyl)-N′-(4-fluorophenyl)urea] | 160 to 162 °C
4 | CNC(=O)c1sc(C(C)(C)C)cc1NC(=O)Nc1ccc(C)c(Cl)c1 [Example 28, N-(2-Methylcarbamoyl-5-tert-butyl-3-thienyl)-N′-(3-chloro-4-methylphenyl)urea] | 178 to 179 °C
5 | CNC(=O)c1sc(C(C)(C)C)cc1NC(=O)Nc1ccc(C)c(F)c1 [Example 29, N-(2-Methylcarbamoyl-5-tert-butyl-3-thienyl)-N′-(3-fluoro4-methylphenyl)urea] | 182 to 183 °C
6 | COC(=O)c1sc(C(C)C)cc1NC(=O)Nc1ccccc1 [Example 1, N-(2-carbomethoxy-5-isopropyl-3-thienyl)-N′-(phenyl)urea] | 108 to 110 °C
7 | CNC(=O)c1sc(C(C)(C)C)cc1NC(=O)Nc1ccc(C(C)C)cc1 [Example 24, N-(2-Methylcarbamoyl-5-tert-butyl-3-thienyl)-N′-(4-isopropylphenyl)urea] | 113 to 120 °C
8 | COC(=O)c1oc(C(C)(C)C)cc1NC(=O)Nc1cccc(Cl)c1Cl [Example 34, N-(2-Carbomethoxy-5-tert-butyl-3-furyl)-N′-(2,3-dichlorophenyl)urea] | 195 to 197 °C
9 | COC(=O)c1sc(C(C)(C)C)cc1NC(=O)Nc1cccc(C)c1 [Example 9, N-(2-Carbomethoxy-5-tert-butyl-3-thienyl)-N′-(3-methylphenyl)urea] | 70 to 72 °C
10 | Cc1ccc(NC(=O)Nc2cc(C(C)(C)C)sc2CNC(=O)CNC(=O)OC(C)(C)C)cc1 [Example 52, N-(2-(N-(N-carbo-tert-butoxyglycyl)aminomethyl)-5-tert-butyl-3-thienyl)-N′-(4-methylphenyl)urea] | 174 to 176 °C
11 | Cc1ccc(NC(=O)Nc2cc(C(C)(C)C)sc2CNC(=O)CN)cc1 [Example 51, N-(2-(N-glycylaminomethyl)-5-tert-butyl-3-thienyl)-N′-(4-methylphenyl)urea] | 93 to 96 °C
12 | COC(=O)c1cc(C(C)C)sc1NC(=O)Nc1ccccc1 [Example 41, N-(3-Carbomethoxy-5-isopropyl-2-thienyl)-N′-(phenyl)urea] | 64 to 65 °C
13 | CNC(=O)c1sc(C(C)(C)C)cc1NC(=O)Nc1ccc(F)c(Cl)c1 [Example 30, N-(2-Methylcarbamoyl-5-tert-butyl-3-thienyl)-N′-(3chloro-4-fluorophenyl)urea] | 203 to 204 °C
14 | COC(=O)c1sc(C(C)(C)C)cc1NC(=O)Nc1ccc(C)s1 [Example 14, N-(2-Carbomethoxy-5-tert-butyl-3-thienyl)-N′-(5-methyl-2-thienyl)urea] | 118 to 120 °C
15 | CNC(=O)c1sc(C(C)(C)C)cc1NC(=O)Nc1ccc(C)cc1C [Example 27, N-(2-Methylcarbamoyl-5-tert-butyl-3-thienyl)-N′-(2,4-dimethylphenyl)urea] | 195 to 196 °C
16 | COC(=O)c1cc(C(C)(C)C)sc1NC(=O)Nc1ccccc1 [Example 43, N-(3-Carbomethoxy-5-tert-butyl-2-thienyl)-N′-(phenyl)urea] | 80 to 82 °C

Other lines, results leading:

Row | melting point | SMILES
17 | 171 to 172 °C | COC(=O)c1c(NC(=O)Nc2ccc(C)cc2)cc(C(C)(C)C)n1C [Example 40, N-(N-methyl-2-carbomethoxy-5-tert-butyl-3-pyrrolyl)-N′-(4-methylphenyl)urea]
18 | 262 to 263 °C (dec.) | COC(=O)c1[nH]c(C(C)(C)C)cc1NC(=O)Nc1ccccc1 [Example 37, N-(2-Carbomethoxy-5-tert-butyl-3-pyrrolyl)-N′-(phenyl)urea]
19 | 203 to 205 °C | CC(=O)NCc1sc(C(C)(C)C)cc1NC(=O)Nc1ccc(C)cc1 [Example 50, N-(2-(N-Acetylaminomethyl)-5-tert-butyl-3-thienyl)-N′-(4-methylphenyl)urea]
20 | 109 to 111 °C | CNC(=O)c1oc(C(C)(C)C)cc1NC(=O)Nc1ccc(F)cc1 [Example 36, N-(2-methylcarbamoyl-5-tert-butyl-3-furyl)-N′-(4-fluorophenyl)urea]
21 | 78 to 79 °C | COC(=O)c1oc(C(C)(C)C)cc1NC(=O)Nc1ccc(C)cc1 [Example 32, N-(2-carbomethoxy-5-tert-butyl-3-furyl)-N′-(4-methylphenyl)urea]
22 | 202 to 204 °C | CNC(=O)c1sc(C(C)(C)C)cc1NC(=O)Nc1ccc(C)cc1 [Example 22, N-(2-methylcarbamoyl-5-tert-butyl-3-thienyl)-N′-(4-methylphenyl)urea]
23 | 257 to 258 °C | COC(=O)c1[nH]c(C(C)(C)C)cc1NC(=O)Nc1ccc(C)cc1 [Example 38, N-(2carbomethoxy-5-tert-butyl-3-pyrrolyl)-N′-(4-methyl-phenyl)urea]
24 | 109 to 111 °C | COC(=O)c1cc(C(C)(C)C)sc1NC(=O)Nc1ccc(C)cc1 [Example 44, N-(3-carbomethoxy-5-tert-butyl-2-thienyl)-N′-(4-methylphenyl)urea]
25 | 164 to 166 °C | CNC(=O)c1[nH]c(C(C)(C)C)cc1NC(=O)Nc1ccc(C)cc1 [Example 113, N-(2-methylcarbamoyl-5-tert-butyl-3-pyrrolyl)-N′-(4-methylphenyl)urea]
26 | 203 to 204 °C | CNC(=O)c1sc(C(C)(C)C)cc1NC(=O)Nc1ccc(F)cc1 [Example 25, N-(2-methylcarbamoyl-5-tert-butyl-3-thienyl)-N′-(4-fluorophenyl)urea]
